Reference: ChEMBL document CHEMBL5223090, “Annual review of lysine-specific demethylase 1 (LSD1/KDM1A) inhibitors in 2021” (Eur J Med Chem, 2022)
pIC50: −log10 of the molar value. Blank lines part the entries; values can stand above or below the compound they belong to.

Key:
Histone deacetylase 2 = Histone deacetylase 2 (Homo sapiens, UniProt Q92769); test: Inhibition of HDAC2 (unknown origin)
MAO-B = biological target: T1, MAO-B (Homo sapiens, UniProt P27338); test: Inhibition of MAO-B (unknown origin) at 0.4 uM relative to control
T1 sequence (P27338 whole entry): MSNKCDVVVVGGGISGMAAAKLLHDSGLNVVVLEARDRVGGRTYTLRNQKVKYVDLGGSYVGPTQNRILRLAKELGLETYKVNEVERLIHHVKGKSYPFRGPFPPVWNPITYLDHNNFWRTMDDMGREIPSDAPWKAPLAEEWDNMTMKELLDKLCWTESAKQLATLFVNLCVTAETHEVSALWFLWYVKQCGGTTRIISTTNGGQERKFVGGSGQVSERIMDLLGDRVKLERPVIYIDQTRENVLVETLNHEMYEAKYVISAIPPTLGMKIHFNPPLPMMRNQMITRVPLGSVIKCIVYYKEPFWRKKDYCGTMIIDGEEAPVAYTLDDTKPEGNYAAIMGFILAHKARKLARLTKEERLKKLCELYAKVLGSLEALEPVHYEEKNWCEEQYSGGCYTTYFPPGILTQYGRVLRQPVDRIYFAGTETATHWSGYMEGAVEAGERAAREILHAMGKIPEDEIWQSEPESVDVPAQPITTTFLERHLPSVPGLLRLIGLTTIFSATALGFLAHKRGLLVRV

[1] = biological target: T2, Lysine-specific histone demethylase 1A (Homo sapiens, UniProt O60341); test: Inhibition of LSD1 (unknown origin) at 0.4 uM relative to control
[2] = Antiproliferative activity against human SGC7901/ADR cells assessed as cell growth inhibition; format: functional, cell-based; conditions: SGC-7901
SGC-7901 = test: Antiproliferative activity against human SGC-7901 cells assessed as cell growth inhibition; format: functional, cell-based
MAO-A = biological target: T3, MAO-A (Homo sapiens, UniProt P21397); test: Inhibition of MAO-A (unknown origin) at 0.4 uM relative to control
T3 sequence (P21397 whole entry): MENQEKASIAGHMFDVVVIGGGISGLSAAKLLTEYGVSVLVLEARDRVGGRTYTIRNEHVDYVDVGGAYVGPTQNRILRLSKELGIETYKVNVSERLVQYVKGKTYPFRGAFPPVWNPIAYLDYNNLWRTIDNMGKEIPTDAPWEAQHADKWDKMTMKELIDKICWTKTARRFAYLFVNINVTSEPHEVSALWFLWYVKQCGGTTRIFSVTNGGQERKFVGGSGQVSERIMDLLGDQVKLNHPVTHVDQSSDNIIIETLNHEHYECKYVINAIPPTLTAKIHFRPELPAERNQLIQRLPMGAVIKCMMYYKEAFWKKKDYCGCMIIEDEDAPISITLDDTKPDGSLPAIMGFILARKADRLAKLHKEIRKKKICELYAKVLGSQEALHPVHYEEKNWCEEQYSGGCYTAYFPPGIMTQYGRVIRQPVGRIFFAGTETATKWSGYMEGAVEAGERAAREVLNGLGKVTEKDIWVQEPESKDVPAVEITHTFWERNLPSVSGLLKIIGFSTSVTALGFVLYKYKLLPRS

A549 [3] = test: cells; conditions: Homo sapiens
MCF7 = test: cells; conditions: Homo sapiens
Bel-7402 = test: cells; conditions: Homo sapiens
[4] = biological target: T2, Lysine-specific histone demethylase 1A
MGC-803 = test: cells; conditions: Homo sapiens
NCI-H460 = test: cells; conditions: Homo sapiens
THP-1 = test: cells; conditions: Homo sapiens
in vitro = conditions: human, THLE-2 cells
MDA-MB-231 = test: Antiproliferative activity against human MDA-MB-231 cells assessed as cell growth inhibition; format: functional, cell-based
A549 [5] = test system: A549
HepG2 = test: Antiproliferative activity against human HepG2 cells assessed as cell growth inhibition; format: functional, cell-based
HCT-116 = test: Antiproliferative activity against human HCT-116 cells assessed as cell growth inhibition; format: functional, cell-based
PC-3 = test: Antiproliferative activity against human PC-3 cells assessed as cell growth inhibition; format: functional, cell-based
SK-OV-3 = test: Antiproliferative activity against human SK-OV-3 cells assessed as cell growth inhibition; format: functional, cell-based

Chain of Histone deacetylase 2 (Q92769 whole entry): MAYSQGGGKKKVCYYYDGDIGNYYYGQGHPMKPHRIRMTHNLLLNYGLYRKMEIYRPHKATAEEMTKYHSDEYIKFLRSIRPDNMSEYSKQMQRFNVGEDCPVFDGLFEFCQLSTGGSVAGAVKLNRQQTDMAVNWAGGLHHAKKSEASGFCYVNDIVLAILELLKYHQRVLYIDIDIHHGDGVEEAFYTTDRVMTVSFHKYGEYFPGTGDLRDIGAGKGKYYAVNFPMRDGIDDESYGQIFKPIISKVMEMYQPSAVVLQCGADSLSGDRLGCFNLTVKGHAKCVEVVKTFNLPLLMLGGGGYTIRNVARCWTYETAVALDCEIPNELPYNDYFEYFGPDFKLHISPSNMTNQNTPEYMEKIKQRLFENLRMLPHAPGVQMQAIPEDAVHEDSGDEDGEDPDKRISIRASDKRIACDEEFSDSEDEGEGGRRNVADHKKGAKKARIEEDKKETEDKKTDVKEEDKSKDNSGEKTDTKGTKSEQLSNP

pIC50 (Histone deacetylase 2): < 5.00
Structure (SMILES): Cc1ccc(-c2cc(/C=C/c3ccc(C(=O)NO)cc3)ccn2)c(F)c1

pIC50 (Histone deacetylase 2): < 4.00
Structure (SMILES): N/C(=N\O)c1cccc(/C=C/c2ccnc(-c3cc(F)ccc3O)c2)c1

inhibition at 0.4 µM (MAO-B): 31%
inhibition [1]: 99.3%
pIC50 (SGC-7901): 5.71
inhibition at 0.4 µM (MAO-A): 23.7%
Structure (SMILES): COc1cc2c(c(O)c1OC)c(=O)c1ccccc1n2C [ARBORININE]
pIC50 [2]: 6.62

pIC50 (A549 [3]): 5.28
pIC50 (MCF7): 5.16
Structure (SMILES): Cn1c(C(=O)Nc2cccc3c2CCCN3Cc2ccc(OC3CCNCC3)cc2)cc2sccc21

pIC50 (Bel-7402): 6.49
Structure (SMILES): COc1ccc(S(=O)(=O)N(CCSC(=S)N2CCN(C)CC2)c2cc(OC)c(OC)c(OC)c2)cc1

pIC50 [4]: 5.83
Structure (SMILES): Oc1ccc(CC2NCCc3cc(O)c(O)cc32)cc1 (configuration not stated) [HIGENAMINE]

pIC50 (A549 [3]): 5.67
pIC50 (MCF7): 5.63
Structure (SMILES): Cn1c(C(=O)Nc2cccc3c2CCCN3Cc2ccc(OC3CCNCC3)cc2[N+](=O)[O-])cc2sccc21

pIC50 (MGC-803): 5.19
pIC50 (NCI-H460): 5.73
pIC50 (A549 [3]): 5.39
pIC50 (THP-1): 5.31
pIC50 (MCF7): 5.47
pIC50 (in vitro): 5.38
Structure (SMILES): CNCCCNCc1coc2cc(-c3ccc(C)cc3)c(-c3ccc(C#N)cc3)cc12

pIC50 (MCF7): 4.88
pIC50 (MDA-MB-231): 4.46
Structure (SMILES): Nc1ccc(C(=O)/C=C/c2ccccc2F)cc1

pIC50 (THP-1): 5.47
Structure (SMILES): COc1cc(Br)c(/C=C/c2ccc(C(=O)NO)cc2)cc1OC
IC5 (A549 [5]): 6.23 µM

pIC50 [4]: 6.05
Structure (SMILES): Oc1ccc(C2CNCCc3c2cc(O)c(O)c3Cl)cc1 (configuration not stated) [FENOLDOPAM]

pIC50 (HepG2): 5.66
pIC50 (HCT-116): 6.58
pIC50 (PC-3): 5.23
pIC50 (SK-OV-3): 5.79
Structure (SMILES): O=S1(=O)CCCCN(S(=O)(=O)c2ccc(-c3cnc(C4CC4)o3)cc2)c2ccccc21

pIC50 [4]: 6.27
Structure (SMILES): Cn1c(C(=O)Nc2cccc3c2N(Cc2ccc(OC4CCNCC4)cc2)CCC3)cc2cc(F)ccc21

pIC50 [4]: 5.68
Structure (SMILES): O=C(c1ccc(OCCN2CCCCC2)cc1)c1c(-c2ccc(O)cc2)sc2cc(O)ccc12 [RALOXIFENE]

pIC50 (A549 [3]): 5.07
pIC50 (MCF7): 6.46
Structure (SMILES): O=C(CC(=O)c1ccc(C(F)(F)F)cc1)Nc1cccc2c1CCCN2Cc1ccc(OC2CCNCC2)cc1

pIC50 (A549 [3]): 5.12
pIC50 (MCF7): 5.15
Structure (SMILES): Cn1c(C(=O)CC(=O)Nc2cccc3c2CCCN3Cc2ccc(OC3CCNCC3)cc2)cc2ccccc21

pIC50 (A549 [3]): 5.80
pIC50 (THP-1): 5.67
pIC50 (MCF7): 2.30
Structure (SMILES): COc1cc(F)c(/C=C/c2ccc(C(=O)NO)cc2)cc1OC
